{
  "source": "ChEMBL document CHEMBL3045470",
  "about": "“Effect of 2-allylphenol against Botrytis cinerea Pers., and its residue in tomato fruit” (Crop Prot, 2007)",
  "assay_type_in_all_cases": "functional, organism-based",
  "key": {"Alternaria solani [1]": {"test_system": "Alternaria solani", "test": "Antifungal activity against Alternaria solani incubated as 50% WP formulation"}, "Fulvia fulva [2]": {"test_system": "Fulvia fulva", "test": "Antifungal activity against Passalora fulva incubated as 50% WP formulation"}, "Botrytis cinerea [3]": {"test_system": "Botrytis cinerea", "test": "Antifungal activity against Botryotinia fuckeliana incubated as 50% WP formulation"}, "Alternaria solani [4]": {"test_system": "Alternaria solani", "test": "Antifungal activity against Alternaria solani incubated as 10% EC formulation"}, "Fulvia fulva [5]": {"test_system": "Fulvia fulva", "test": "Antifungal activity against Passalora fulva incubated as 10% EC formulation"}, "Botrytis cinerea [6]": {"test_system": "Botrytis cinerea", "test": "Antifungal activity against Botryotinia fuckeliana incubated as 10% EC formulation"}},
  "data": [
    {"smiles": "CC(C)NC(=O)N1CC(=O)N(c2cc(Cl)cc(Cl)c2)C1=O", "note": "[IPRODIONE]", "values": [
      {"measurement": "EC50", "setting": "Alternaria solani [1]", "result": 56, "unit": "µg/mL"},
      {"measurement": "EC50", "setting": "Fulvia fulva [2]", "result": 48.9, "unit": "µg/mL"},
      {"measurement": "EC50", "setting": "Botrytis cinerea [3]", "result": 58.6, "unit": "µg/mL"}
    ]},
    {"smiles": "C=CCc1ccccc1O", "note": "[2-ALLYLPHENOL]", "values": [
      {"measurement": "EC50", "setting": "Alternaria solani [4]", "result": 31.3, "unit": "µg/mL"},
      {"measurement": "EC50", "setting": "Fulvia fulva [5]", "result": 52.2, "unit": "µg/mL"},
      {"measurement": "EC50", "setting": "Botrytis cinerea [6]", "result": 21.7, "unit": "µg/mL"}
    ]}
  ]
}
